# How the values were obtained:
# [1] = biological target: recombinant human baculovirus-expressed AXL (Homo sapiens (Human), UniProt P30530); experiment: AXL Kinase Assay (HTRF KinEASE); type: biochemical; settings: average of two or more determinations
# [2] = biological target: recombinant human baculovirus-expressed cMET (Homo sapiens (Human), UniProt P08581); experiment: C-MET Kinase Assay (HTRF KinEASE); type: biochemical; settings: average of two or more determinations; read-out: c-MET IC50
# Method in brief: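 HTRF KinEASE format with recombinant human baculovirus-expressed cMET at 8 ng/mL, biotinylated peptide at 0.1 μM and ATP at 0.02 μM. IC50 came from percent control activity versus log concentration, fitted by nonlinear regression to a variable-slope sigmoidal equation with bottom fixed at 0 and top at 100.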
Compound,IC50 [1] [µM],IC50 [2] [µM]
"CCn1cc(C(=O)Nc2ccc(Oc3ccnc4cc(OC)c(OC)cc34)c(F)c2)c(=O)n(-c2ccccc2)c1=O [Example 100, 1-Ethyl-2,4-dioxo-3-phenyl-1,2,3,4-tetrahydro-pyrimidine-5-carboxylic acid [4-(6,7-dimethoxy-quinolin-4-yloxy)-3-fluoro-phenyl]-amide]",< 0.01,0.01 to 0.1
"COc1cc2nccc(Oc3ccc(NC(=O)c4cn(C(C)C)c(=O)n(-c5ccccc5)c4=O)cc3F)c2cc1OC [Example 101, 1-Isopropyl-2,4-dioxo-3-phenyl-1,2,3,4-tetrahydro-pyrimidine-5-carboxylic acid [4-(6,7-dimethoxy-quinolin-4-yloxy)-3-fluoro-phenyl]-amide]",< 0.01,0.01 to 0.1
"COc1cc2nccc(Oc3ccc(NC(=O)c4nn(C)c(=O)n(-c5ccc(F)cc5)c4=O)cc3F)c2cc1OC [Example 104, 4-(4-Fluorophenyl)-2-methyl-3,5-dioxo-2,3,4,5-tetrahydro-[1,2,4]triazine-6-carboxylic acid [4-(6,7-dimethoxy-quinolin-4-yloxy)-3-fluoro-phenyl]-amide]",< 0.01,< 0.01
"CCn1nc(C(=O)Nc2ccc(Oc3ccnc4cc(OC)c(OC)cc34)c(F)c2)c(=O)n(-c2ccc(F)cc2)c1=O [Example 105, 2-Ethyl-4-(4-fluoro-phenyl)-3,5-dioxo-2,3,4,5-tetrahydro-[1,2,4]triazine-6-carboxylic acid [4-(6,7-dimethoxy-quinolin-4-yloxy)-3-fluoro-phenyl]-amide]",< 0.01,0.01 to 0.1
"CC(C)n1nc(C(=O)Nc2ccc(Oc3ccnc4cc5c(cc34)OCCO5)c(F)c2)c(=O)n(-c2ccc(F)cc2)c1=O [Example 106, 4-(4-Fluorophenyl)-2-isopropyl-3,5-dioxo-2,3,4,5-tetrahydro-[1,2,4]triazine-6-carboxylic acid [4-(2,3-dihydro-[1,4]dioxino[2,3-g]quinolin-9-yloxy)-3-fluorophenyl]-amide]",< 0.01,0.01 to 0.1
"COc1cc2nccc(Oc3ccc(NC(=O)c4n[nH]c(=O)n(-c5ccc(F)cc5)c4=O)cc3F)c2cc1OC [Example 107, 4-(4-Fluoro-phenyl)-3,5-dioxo-2,3,4,5-tetrahydro-[1,2,4]triazine-6-carboxylic acid [4-(6,7-dimethoxy-quinolin-4-yloxy)-3-fluoro-phenyl]-amide]",< 0.01,< 0.01
"COc1cc2nccc(Oc3ccc(NC(=O)c4nn(C(C)C)c(=O)n(-c5ccc(F)cc5)c4=O)nc3)c2cc1OC [Example 110, 4-(4-Fluoro-phenyl)-2-isopropyl-3,5-dioxo-2,3,4,5-tetrahydro-[1,2,4]triazine-6-carboxylic acid [5-(6,7-dimethoxy-quinolin-4-yloxy)-pyridin-2-yl]-amide]",< 0.01,0.01 to 0.1
"COc1ccc2c(Oc3ccc(NC(=O)c4nn(C(C)C)c(=O)n(-c5ccc(F)cc5)c4=O)cc3F)ccnc2c1 [Example 111, 4-(4-Fluorophenyl)-2-isopropyl-3,5-dioxo-2,3,4,5-tetrahydro-[1,2,4]triazine-6-carboxylic acid [3-fluoro-4-(7-methoxyquinolin-4-yloxy)-phenyl]-amide]",< 0.01,0.01 to 0.1
"C#CCn1nc(C(=O)Nc2ccc(Oc3ccnc4cc(OC)c(OC)cc34)c(F)c2)c(=O)n(-c2ccc(F)cc2)c1=O [Example 113, 4-(4-Fluoro-phenyl)-3,5-dioxo-2-prop-2-ynyl-2,3,4,5-tetrahydro-[1,2,4]triazine-6-carboxylic acid [4-(6,7-dimethoxy-quinolin-4-yloxy)-3-fluoro-phenyl]-amide]",< 0.01,< 0.01
"C#CCn1c(=O)c(C(=O)Nc2ccc(Oc3ccnc4cc(OC)c(OC)cc34)c(F)c2)nn(C)c1=O [Example 115, 2-Methyl-3,5-dioxo-4-prop-2-ynyl-2,3,4,5-tetrahydro-[1,2,4]triazine-6-carboxylic acid [4-(6,7-dimethoxy-uinolin-4-yloxy)-3-fluoro-phenyl]-amide]",< 0.01,0.01 to 0.1
"COc1cc2nccc(Oc3ccc(NC(=O)c4nn(C)c(=O)n(CC5CC5)c4=O)cc3F)c2cc1OC [Example 125, 4-Cyclopropylmethyl-2-methyl-3,5-dioxo-2,3,4,5-tetrahydro-[1,2,4]triazine-6-carboxylic acid [4-(6,7-dimethoxy-quinolin-4-yloxy)-3-fluoro-phenyl]-amide]",< 0.01,0.01 to 0.1
"COc1cc2nccc(Oc3ccc(NC(=O)c4nn(C)c(=O)n(CC5CCOCC5)c4=O)cc3F)c2cc1OC [Example 126, 2-Methyl-3,5-dioxo-4-(tetrahydro-pyran-4-ylmethyl)-2,3,4,5-tetrahydro-[1,2,4]triazine-6-carboxylic acid [4-(6,7-dimethoxy-quinolin-4-yloxy)-3-fluoro-phenyl]-amide]",< 0.01,0.101 to 1
"COc1cc2nccc(Oc3ccc(NC(=O)c4nn(C)c(=O)n(CC(C)C)c4=O)cc3F)c2cc1OC [Example 127, 4-Isobutyl-2-methyl-3,5-dioxo-2,3,4,5-tetrahydro-[1,2,4]triazine-6-carboxylic acid [4-(6,7-dimethoxy-quinolin-4-yloxy)-3-fluoro-phenyl]-amide]",< 0.01,0.01 to 0.1
"COc1cc2nccc(Oc3ccc(NC(=O)c4nn(C)c(=O)n(CC5CCC5)c4=O)cc3F)c2cc1OC [Example 128, 4-Cyclobutylmethyl-2-methyl-3,5-dioxo-2,3,4,5-tetrahydro-[1,2,4]triazine-6-carboxylic acid [4-(6,7-dimethoxy-quinolin-4-yloxy)-3-fluoro-phenyl]-amide]",< 0.01,0.01 to 0.1

# Second part, the compound after the results:
IC50 [1] [µM],IC50 [2] [µM],Compound
< 0.01,< 0.01,"COc1cc2nccc(Oc3ccc(NC(=O)c4c[nH]c(=O)n(-c5ccc(F)cc5)c4=O)c(F)c3)c2cc1OC [Example 85, 3-(4-Fluoro-phenyl)-2,4-dioxo-1,2,3,4-tetrahydro-pyrimidine-5-carboxylic acid [4-(6,7-dimethoxy-quinolin-4-yloxy)-2-fluoro-phenyl]-amide]"
< 0.01,0.01 to 0.1,"COc1cc2nccc(Oc3ccc(NC(=O)c4cn(C)c(=O)n(-c5ccc(F)cc5)c4=O)c(F)c3)c2cc1OC [Example 86, 3-(4-Fluoro-phenyl)-1-methyl-2,4-dioxo-1,2,3,4-tetrahydro-pyrimidine-5-carboxylic acid [4-(6,7-dimethoxy-quinolin-4-yloxy)-2-fluoro-phenyl]-amide]"
< 0.01,0.01 to 0.1,"CCn1cc(C(=O)Nc2ccc(Oc3ccnc4cc(OC)c(OC)cc34)cc2F)c(=O)n(-c2ccc(F)cc2)c1=O [Example 87, 1-Ethyl-3-(4-fluoro-phenyl)-2,4-dioxo-1,2,3,4-tetrahydro-pyrimidine-5-carboxylic acid [4-(6,7-dimethoxy-quinolin-4-yloxy)-2-fluoro-phenyl]-amide]"
< 0.01,0.01 to 0.1,"C=CCn1cc(C(=O)Nc2ccc(Oc3ccnc4cc(OC)c(OC)cc34)cc2F)c(=O)n(-c2ccc(F)cc2)c1=O [Example 88, 1-Allyl-3-(4-fluoro-phenyl)-2,4-dioxo-1,2,3,4-tetrahydro-pyrimidine-5-carboxylic acid [4-(6,7-dimethoxy-quinolin-4-yloxy)-2-fluoro-phenyl]-amide]"
< 0.01,0.01 to 0.1,"CCn1cc(C(=O)Nc2cc(F)c(Oc3ccnc4cc(OC)c(OC)cc34)c(F)c2)c(=O)n(-c2ccc(F)cc2)c1=O [Example 90, 1-Ethyl-3-(4-fluoro-phenyl)-2,4-dioxo-1,2,3,4-tetrahydro-pyrimidine-5-carboxylic acid [4-(6,7-dimethoxy-quinolin-4-yloxy)-3,5-difluoro-phenyl]-amide]"
< 0.01,0.01 to 0.1,"CCn1c(=O)c(C(=O)Nc2ccc(Oc3ccnc4cc(OC)c(OC)cc34)c(F)c2)cn(-c2ccc(F)cc2)c1=O [Example 91, 3-Ethyl-1-(4-fluoro-phenyl)-2,4-dioxo-1,2,3,4-tetrahydro-pyrimidine-5-carboxylic acid [4-(6,7-dimethoxy-quinolin-4-yloxy)-3-fluoro-phenyl]-amide]"
< 0.01,< 0.01,"CCCn1cc(C(=O)Nc2ccc(C(=O)c3ccnc4cc(OC)c(OC)cc34)c(F)c2)c(=O)n(-c2ccc(F)cc2)c1=O [Example 102, 3-(4-Fluoro-phenyl)-2,4-dioxo-1-propyl-1,2,3,4-tetrahydro-pyrimidine-5-carboxylic acid [4-(6,7-dimethoxy-quinoline-4-carbonyl)-3-fluoro-phenyl]-amide]"
< 0.01,0.01 to 0.1,"COc1cc2nccc(Oc3ccc(NC(=O)c4nn(C(C)C)c(=O)n(-c5ccc(F)cc5)c4=O)cc3F)c2cc1OC [Example 103, 4-(4-Fluoro-phenyl)-2-isopropyl-3,5-dioxo-2,3,4,5-tetrahydro-[1,2,4]triazine-6-carboxylic acid [4-(6,7-dimethoxy-quinolin-4-yloxy)-3-fluoro-phenyl]-amide]"
< 0.01,< 0.01,"COc1cc2nccc(Oc3ccc(NC(=O)c4nn(CCO)c(=O)n(-c5ccc(F)cc5)c4=O)cc3F)c2cc1OC [Example 108, 4-(4-Fluorophenyl)-2-(2-hydroxyethyl)-3,5-dioxo-2,3,4,5-tetrahydro-[1,2,4]triazine-6-carboxylic acid [4-(6,7-dimethoxyquinolin-4-yloxy)-3-fluorophenyl]-amide]"
< 0.01,0.01 to 0.1,"COc1cc2nccc(Oc3ccc(NC(=O)c4nn(CC(C)=O)c(=O)n(-c5ccc(F)cc5)c4=O)cc3F)c2cc1OC [Example 112, 4-(4-Fluorophenyl)-3,5-dioxo-2-(2-oxo-propyl)-2,3,4,5-tetrahydro-[1,2,4]triazine-6-carboxylic acid [4-(6,7-dimethoxyquinolin-4-yloxy)-3-fluorophenyl]-amide]"

# Source: patent publication US9745283B2, “Uracil derivatives as AXL and c-MET kinase inhibitors” (priority 2011, dated 2017)
